Assay results: US8293753B2, “Substituted 2-carboxamide cycloamino ureas” (Novartis AG, priority 2009, dated 2012)
pIC50: −log10 of the molar value.

Legend:
Format in all cases: biochemical
PI3Kβ = target: T1, PI3Kβ (Homo sapiens, UniProt P42338); test: PI3K KinaseGlo assay, PI3Kbeta; settings: for pIC50: KinaseGlo, 1 μM ATP, 25 nM enzyme, 30 mins; for PI3Kbeta (selectivity): selectivity factor: PI3Kbeta IC50 divided by PI3Kalpha IC50
T1 construct: His (C); made in house; host or cells: baculovirus / Tn5 insect cells
T1 sequence (P42338 with tags, fused parts or gaps): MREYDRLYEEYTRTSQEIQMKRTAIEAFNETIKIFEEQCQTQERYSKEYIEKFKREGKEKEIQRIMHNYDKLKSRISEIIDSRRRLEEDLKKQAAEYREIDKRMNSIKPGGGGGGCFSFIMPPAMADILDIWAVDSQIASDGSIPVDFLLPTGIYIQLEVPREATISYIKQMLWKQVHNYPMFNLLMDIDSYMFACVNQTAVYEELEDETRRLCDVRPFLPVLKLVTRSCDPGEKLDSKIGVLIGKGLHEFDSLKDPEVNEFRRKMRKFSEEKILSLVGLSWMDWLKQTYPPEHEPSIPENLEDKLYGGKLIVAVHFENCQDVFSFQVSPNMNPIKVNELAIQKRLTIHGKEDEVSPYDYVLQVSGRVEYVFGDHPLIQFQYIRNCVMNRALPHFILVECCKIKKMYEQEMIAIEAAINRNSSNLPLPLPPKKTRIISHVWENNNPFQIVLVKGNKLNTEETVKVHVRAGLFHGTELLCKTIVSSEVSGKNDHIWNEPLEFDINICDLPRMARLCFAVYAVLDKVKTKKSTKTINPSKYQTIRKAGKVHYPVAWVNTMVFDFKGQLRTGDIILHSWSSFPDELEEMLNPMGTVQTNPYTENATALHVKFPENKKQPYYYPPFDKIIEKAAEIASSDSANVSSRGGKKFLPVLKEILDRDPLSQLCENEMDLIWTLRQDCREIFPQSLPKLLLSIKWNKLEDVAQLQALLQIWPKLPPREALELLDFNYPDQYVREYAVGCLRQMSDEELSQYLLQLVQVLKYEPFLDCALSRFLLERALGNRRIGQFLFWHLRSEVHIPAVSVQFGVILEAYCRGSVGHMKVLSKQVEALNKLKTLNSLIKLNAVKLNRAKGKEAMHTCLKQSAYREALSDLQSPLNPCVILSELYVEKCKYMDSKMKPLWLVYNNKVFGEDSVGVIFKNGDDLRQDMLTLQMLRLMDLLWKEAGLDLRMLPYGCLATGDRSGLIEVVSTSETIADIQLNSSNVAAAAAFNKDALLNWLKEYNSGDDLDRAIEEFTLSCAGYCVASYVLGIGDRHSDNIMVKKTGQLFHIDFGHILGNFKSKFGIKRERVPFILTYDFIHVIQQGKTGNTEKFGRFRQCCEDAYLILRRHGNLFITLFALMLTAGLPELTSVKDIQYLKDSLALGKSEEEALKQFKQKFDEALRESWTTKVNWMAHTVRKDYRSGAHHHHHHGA

PI3Kδ = target: T2, PI3Kδ (Homo sapiens, UniProt O00329); test: PI3K KinaseGlo assay, PI3Kdelta; settings: for pIC50: KinaseGlo, 1 μM ATP, 10 nM enzyme, 30 mins; for PI3Kdelta (selectivity): selectivity factor: PI3Kdelta IC50 divided by PI3Kalpha IC50
T2 construct: p85iSH2(461-568)-GGGGGG-p110δ(2-1044)-His; His (C); made in house; host or cells: baculovirus / Tn5 insect cells
T2 sequence (O00329 with tags, fused parts or gaps): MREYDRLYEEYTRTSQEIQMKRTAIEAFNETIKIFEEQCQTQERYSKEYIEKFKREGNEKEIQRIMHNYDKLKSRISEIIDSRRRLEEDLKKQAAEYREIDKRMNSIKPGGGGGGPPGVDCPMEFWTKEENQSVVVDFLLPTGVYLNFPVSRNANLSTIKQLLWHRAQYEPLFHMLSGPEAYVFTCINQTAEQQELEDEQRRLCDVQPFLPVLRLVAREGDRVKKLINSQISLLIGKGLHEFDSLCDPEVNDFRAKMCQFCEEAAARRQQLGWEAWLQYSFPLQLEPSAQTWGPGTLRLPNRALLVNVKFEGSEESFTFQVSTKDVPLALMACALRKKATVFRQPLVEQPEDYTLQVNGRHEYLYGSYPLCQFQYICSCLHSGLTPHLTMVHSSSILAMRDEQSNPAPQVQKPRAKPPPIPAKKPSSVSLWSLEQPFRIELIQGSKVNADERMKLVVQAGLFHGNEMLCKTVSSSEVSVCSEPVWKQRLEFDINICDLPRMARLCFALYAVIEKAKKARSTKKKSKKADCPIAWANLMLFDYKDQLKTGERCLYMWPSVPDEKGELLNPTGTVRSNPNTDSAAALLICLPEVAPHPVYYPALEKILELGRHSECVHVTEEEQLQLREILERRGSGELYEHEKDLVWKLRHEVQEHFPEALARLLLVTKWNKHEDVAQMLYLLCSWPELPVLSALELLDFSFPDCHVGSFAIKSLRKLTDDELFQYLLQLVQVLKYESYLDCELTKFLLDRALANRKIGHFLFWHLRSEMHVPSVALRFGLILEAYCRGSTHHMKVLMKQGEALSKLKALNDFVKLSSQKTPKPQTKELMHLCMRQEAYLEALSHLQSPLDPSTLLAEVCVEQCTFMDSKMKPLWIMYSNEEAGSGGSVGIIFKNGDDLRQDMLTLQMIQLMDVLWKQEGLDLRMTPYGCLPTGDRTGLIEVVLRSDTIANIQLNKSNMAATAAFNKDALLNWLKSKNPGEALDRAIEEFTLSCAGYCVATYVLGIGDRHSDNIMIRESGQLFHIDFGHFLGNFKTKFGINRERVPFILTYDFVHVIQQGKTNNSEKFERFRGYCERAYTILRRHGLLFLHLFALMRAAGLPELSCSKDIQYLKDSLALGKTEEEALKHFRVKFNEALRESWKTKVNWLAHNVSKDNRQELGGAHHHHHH

PI3Kα = target: T3, PI3Kα (Homo sapiens, UniProt P42336); test: PI3K KinaseGlo assay, PI3Kalpha; settings: 1 μM ATP, 10 nM enzyme, 30 mins
T3 construct: His (C); made in house; host or cells: baculovirus / Tn5 insect cells
T3 sequence (P42336 with tags, fused parts or gaps): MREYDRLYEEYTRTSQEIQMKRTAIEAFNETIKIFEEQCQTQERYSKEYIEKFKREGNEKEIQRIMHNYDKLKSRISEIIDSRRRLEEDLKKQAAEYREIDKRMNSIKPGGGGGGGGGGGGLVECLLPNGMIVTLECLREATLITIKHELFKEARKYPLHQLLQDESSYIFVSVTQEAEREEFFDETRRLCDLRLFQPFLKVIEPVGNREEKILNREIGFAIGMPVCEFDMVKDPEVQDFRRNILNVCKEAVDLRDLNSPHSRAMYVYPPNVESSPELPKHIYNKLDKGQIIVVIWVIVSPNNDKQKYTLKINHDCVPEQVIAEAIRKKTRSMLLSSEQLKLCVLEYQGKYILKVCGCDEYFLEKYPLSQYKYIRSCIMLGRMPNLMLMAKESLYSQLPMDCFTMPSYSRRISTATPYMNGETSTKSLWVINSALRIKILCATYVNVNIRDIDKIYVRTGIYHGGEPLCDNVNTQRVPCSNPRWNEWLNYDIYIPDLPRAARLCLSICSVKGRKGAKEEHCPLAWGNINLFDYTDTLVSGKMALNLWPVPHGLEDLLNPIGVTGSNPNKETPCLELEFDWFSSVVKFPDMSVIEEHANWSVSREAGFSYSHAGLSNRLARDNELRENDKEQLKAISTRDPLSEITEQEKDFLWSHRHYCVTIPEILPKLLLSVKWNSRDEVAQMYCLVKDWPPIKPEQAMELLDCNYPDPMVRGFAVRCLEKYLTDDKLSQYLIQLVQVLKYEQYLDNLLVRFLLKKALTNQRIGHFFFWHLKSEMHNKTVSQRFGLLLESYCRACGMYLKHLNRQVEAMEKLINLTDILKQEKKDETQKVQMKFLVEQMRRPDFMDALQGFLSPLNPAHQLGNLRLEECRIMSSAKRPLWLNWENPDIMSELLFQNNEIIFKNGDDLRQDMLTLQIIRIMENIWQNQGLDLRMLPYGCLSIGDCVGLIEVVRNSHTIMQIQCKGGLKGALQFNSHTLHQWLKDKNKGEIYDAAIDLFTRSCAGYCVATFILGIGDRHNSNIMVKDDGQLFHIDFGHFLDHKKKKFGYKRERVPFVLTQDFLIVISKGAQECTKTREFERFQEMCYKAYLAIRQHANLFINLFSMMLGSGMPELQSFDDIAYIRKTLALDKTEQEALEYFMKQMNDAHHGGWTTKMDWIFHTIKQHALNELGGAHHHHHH

PI3Kγ = target: T4, PI3Kγ (Homo sapiens, UniProt P48736, Q459R); test: PI3K KinaseGlo assay, PI3Kgamma; settings: for pIC50: KinaseGlo, 1 μM ATP, 150 nM enzyme, 90 mins; for PI3Kgamma (selectivity): selectivity factor: PI3Kgamma IC50 divided by PI3Kalpha IC50
T4 construct: His (C); made in house; host or cells: Tn5 insect cells; construct obtained from Roger Williams lab (MRC LMB)
T4 sequence (P48736 with tags, fused parts or gaps Q459R): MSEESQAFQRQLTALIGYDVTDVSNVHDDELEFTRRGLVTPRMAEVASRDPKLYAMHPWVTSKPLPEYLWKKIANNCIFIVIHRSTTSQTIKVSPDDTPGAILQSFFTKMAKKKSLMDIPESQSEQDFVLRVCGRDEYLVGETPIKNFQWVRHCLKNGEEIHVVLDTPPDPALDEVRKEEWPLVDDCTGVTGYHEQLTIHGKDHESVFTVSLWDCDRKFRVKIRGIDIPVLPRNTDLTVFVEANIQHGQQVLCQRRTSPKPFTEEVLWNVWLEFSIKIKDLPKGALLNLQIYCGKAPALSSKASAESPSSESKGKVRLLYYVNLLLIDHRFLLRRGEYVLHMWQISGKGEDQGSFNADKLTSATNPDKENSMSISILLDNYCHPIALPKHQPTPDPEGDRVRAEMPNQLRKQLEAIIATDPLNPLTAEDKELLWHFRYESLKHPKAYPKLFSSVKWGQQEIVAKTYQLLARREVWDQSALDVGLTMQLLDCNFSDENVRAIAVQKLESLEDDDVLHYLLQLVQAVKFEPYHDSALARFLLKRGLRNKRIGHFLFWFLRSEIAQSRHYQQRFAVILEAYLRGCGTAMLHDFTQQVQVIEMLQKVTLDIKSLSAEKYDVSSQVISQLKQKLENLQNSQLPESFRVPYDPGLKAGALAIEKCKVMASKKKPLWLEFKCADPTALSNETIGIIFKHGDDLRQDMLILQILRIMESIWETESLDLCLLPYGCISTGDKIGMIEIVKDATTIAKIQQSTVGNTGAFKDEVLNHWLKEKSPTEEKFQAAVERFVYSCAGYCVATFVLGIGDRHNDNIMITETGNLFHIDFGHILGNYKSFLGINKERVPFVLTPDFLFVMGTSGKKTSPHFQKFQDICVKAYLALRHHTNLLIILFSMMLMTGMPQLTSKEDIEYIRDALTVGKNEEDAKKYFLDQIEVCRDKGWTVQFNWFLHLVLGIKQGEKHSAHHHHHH
Protocol: PI3K KinaseGlo assay: […] of compound dilutions were dispensed onto black 384-well low volume Non Binding Styrene (NBS) plates (Costar Cat. No. NBS#3676). L-a-phosphatidylinositol (PI), provided as 10 mg/ml solution in methanol, was transferred into a glass tube and dried under nitrogen beam. It was then resuspended in 3% OctylGlucoside (OG) by vortexing and stored at 4° C. The KinaseGlo Luminescent Kinase Assay (Promega, Madison/WI, USA) is a homogeneous HTS method of measuring kinase activity by quantifying the amount of ATP remaining in solution following a kinase reaction.
5 μL of a mix of PI/OG with the PI3K subtype were added (Table 1). Kinase reactions were started by addition of 5 μl of ATP-mix containing in a final volume 10 μL 10 mM TRIS-HCl pH 7.5, 3 mM MgCl2, 50 mM NaCl, 0.05% CHAPS, 1 mM DTT and 1 μM ATP, and occurred at room temperature. Reactions were stopped with 10 μl of KinaseGlo and plates were read 10 mins later in a Synergy2 reader using an integration time of 0.1 seconds per well. […] The standard was used as a reference compound and included in all assay plates in the form of 16 dilution points in duplicate.
The PI3Kα, PI3Kβ and PI3Kδ constructs are fusion of p85α iSH2 domain and the respective p110 isoforms. The p85α fragment and p110 isoform genes were generated by PCR from first strand cDNA generated by RT-PCR from commercial RNA from placenta, testis and brain as described below. The PI3Kγ construct was obtained from Roger Williams lab, MRC Laboratory of Molecular Biology, Cambridge, UK (November, 2003) and is described (Pacold, Michael E.; Suire, Sabine; Perisic, Olga; Lara-Gonzalez, Samuel; Davis, Colin T.; Walker, Edward H.; Hawkins, Phillip T.; Stephens, Len; Eccleston, John F.; Williams, Roger L. Crystal structure and functional analysis of Ras binding to its effector phosphoinositide 3-kinase gamma. Cell (2000), 103(6), 931-943).
Construct obtained from Roger Williams lab, MRC Laboratory of Molecular Biology, Cambridge, UK (November, 2003). Description of the construct in (Pacold, Michael E.; Suire, Sabine; Perisic, Olga; Lara-Gonzalez, Samuel; Davis, Colin T.; Walker, Edward H.; Hawkins, Phillip T.; Stephens, Len; Eccleston, John F.; Williams, Roger L. Crystal structure and functional analysis of Ras binding to its effector phosphoinositide 3-kinase gamma. Cell (2000), 103(6), 931-943). Constructs lacking the N-terminal 144 aa.

Structure (SMILES)	pIC50 (PI3Kβ)	PI3Kbeta (selectivity) (PI3Kβ)	pIC50 (PI3Kδ)	PI3Kdelta (selectivity) (PI3Kδ)	pIC50 (PI3Kα)	pIC50 (PI3Kγ)	PI3Kgamma (selectivity) (PI3Kγ)
Cc1nc(NC(=O)N2CCC(C)(C)C2C(N)=O)sc1-c1ccnc(C2(C)CC2)c1 (racemic) [Example 3, (rac)-3,3-Dimethyl-pyrrolidine-1,2-dicarboxylic acid 2-amide 1-({4-methyl-5-[2-(1-methyl-cyclopropyl)-pyridin-4-yl]-thiazol-2-yl}-amide)]	< 5.04	(>171)	6.10	(15)	7.28	5.97	(20)
Cc1nc(NC(=O)N2CCC(C)(C)C2C(N)=O)sc1-c1ccnc(C(C)(C)C(F)(F)F)c1 (racemic) [Example 4, (rac)-3,3-Dimethyl-pyrrolidine-1,2-dicarboxylic acid 2-amide 1-({4-methyl-5-[2-(2,2,2-trifluoro-1,1-dimethyl-ethyl)-pyridin-4-yl]-thiazol-2-yl}-amide)]	5.16	(76)	6.36	(4)	7.04	5.77	(18)
Cc1nc(NC(=O)N2CC[C@@H](C)[C@H]2C(N)=O)sc1-c1ccnc(C2(C)CC2)c1 [Example 1, (2S,3R)-3-Methyl-pyrrolidine-1,2-dicarboxylic acid 2-amide 1-({4-methyl-5-[2-(1-methyl-cyclopropyl)-pyridin-4-yl]-thiazol-2-yl}-amide)]	5.59	(370)	6.77	(24)	8.15	6.76	(25)
Cc1nc(NC(=O)N2CC[C@@H](CN3CCOCC3)[C@H]2C(N)=O)sc1-c1ccnc(C2(C)CC2)c1 [Example 7, (2S,3S)-3-Morpholin-4-ylmethyl-pyrrolidine-1,2-dicarboxylic acid 2-amide 1-({4-methyl-5-[2-(1-methyl-cyclopropyl)-pyridin-4-yl]-thiazol-2-yl}-amide)]	5.29	(136)	6.72	(5)	7.42		
Cc1nc(NC(=O)N2CC[C@@H](C)[C@H]2C(N)=O)sc1-c1ccnc(C(C)(C)F)n1 [Example 9, (2S,3R)-3-Methyl-pyrrolidine-1,2-dicarboxylic acid 2-amide 1-({5-[2-(1-fluoro-1-methyl-ethyl)-pyrimidin-4-yl]-4-methyl-thiazol-2-yl}-amide)]	< 5.04	(910)	6.23	(58)	8.00	6.70	(20)
Cc1nc(NC(=O)N2CC[C@@H](CN(C)C)[C@H]2C(N)=O)sc1-c1ccnc(C(C)(C)C(F)(F)F)c1 [Example 15, (2S,3S)-3-Dimethylaminomethyl-pyrrolidine-1,2-dicarboxylic acid 2-amide 1-({4-methyl-5-[2-(2,2,2-trifluoro-1,1-dimethyl-ethyl)-pyridin-4-yl]-thiazol-2-yl}-amide)]	5.49	(192)	7.03	(5)	7.77		

The remaining lines, values ahead:

pIC50 (PI3Kβ)	PI3Kbeta (selectivity) (PI3Kβ)	pIC50 (PI3Kδ)	PI3Kdelta (selectivity) (PI3Kδ)	pIC50 (PI3Kα)	pIC50 (PI3Kγ)	PI3Kgamma (selectivity) (PI3Kγ)	Structure (SMILES)
5.92	(44)	7.23	(2)	7.57	6.98	(3)	Cc1nc(NC(=O)N2CC[C@@H](C)[C@H]2C(N)=O)sc1-c1ccnc(C(C)(C)C(F)(F)F)c1 [Example 2, (2S,3R)-3-Methyl-pyrrolidine-1,2-dicarboxylic acid 2-amide 1-({4-methyl-5-[2-(2,2,2-trifluoro-1,1-dimethyl-ethyl)-pyridin-4-yl]-thiazol-2-yl}-amide)]
5.49	(178)	6.62	(13)	7.74			CC(=O)NC[C@@H]1CCN(C(=O)Nc2nc(C)c(-c3ccnc(C4(C)CC4)c3)s2)[C@@H]1C(N)=O [Example 5, (2S,3S)-3-(Acetylamino-methyl)pyrrolidine-1,2-dicarboxylic acid 2-amide 1-({4-methyl-5-[2-(1-methyl-cyclopropyl)-pyridin-4-yl]-thiazol-2-yl}-amide)]
6.00	(76)	6.16	(52)	7.89			CC(=O)NC[C@@H]1CCN(C(=O)Nc2nc(C)c(-c3ccnc(C(C)(C)C(F)(F)F)c3)s2)[C@@H]1C(N)=O [Example 6, (2S,3S)-3-(Acetylamino-methyl)-pyrrolidine-1,2-dicarboxylic acid 2-amide 1-({4-methyl-5-[2-(2,2,2-trifluoro-1,1-dimethyl-ethyl)-pyridin-4-yl]-thiazol-2-yl}-amide)]
5.64	(380)	7.31	(8)	8.22			Cc1nc(NC(=O)N2CC[C@@H](CN3CCOCC3)[C@H]2C(N)=O)sc1-c1ccnc(C(C)(C)C(F)(F)F)c1 [Example 8, (2S,3S)-3-Morpholin-4-ylmethyl-pyrrolidine-1,2-dicarboxylic acid 2-amide 1-({4-methyl-5-[2-(2,2,2-trifluoro-1,1-dimethyl-ethyl)-pyridin-4-yl]-thiazol-2-yl}-amide)]
5.80	(353)	7.48	(7)	8.35	7.12	(16)	[2H]C([2H])([2H])C(c1nccc(-c2sc(NC(=O)N3CC[C@@H](C)[C@H]3C(N)=O)nc2C)n1)(C([2H])([2H])[2H])C([2H])([2H])[2H] [Example 12, (2S,3R)-3-Methylpyrrolidine-1,2-dicarboxylic acid 2-amide 1-{[5-(2-d9-tert-butyl-pyrimidin-4-yl)-4-methyl-thiazol-2-yl]-amide}]
6.03	(234)	7.31	(12)	8.40	6.38	(104)	[2H]C([2H])([2H])C([2H])([2H])N(c1cncc(-c2sc(NC(=O)N3CC[C@@H](C)[C@H]3C(N)=O)nc2C)n1)C([2H])([2H])C([2H])([2H])[2H] [Example 13, (2S,3R)-3-Methyl-pyrrolidine-1,2-dicarboxylic acid 2-amide 1-{[5-(6-d10-diethylamino-pyrazin-2-yl)-4-methyl-thiazol-2-yl]-amide}]
5.83	(122)	6.96	(9)	7.92			COC[C@@H]1CCN(C(=O)Nc2nc(C)c(-c3ccnc(C(C)(C)C(F)(F)F)c3)s2)[C@@H]1C(N)=O [Example 14, (2S,3R)-3-Methoxymethyl-pyrrolidine-1,2-dicarboxylic acid 2-amide 1-({4-methyl-5-[2-(2,2,2-trifluoro-1,1-dimethyl-ethyl)-pyridin-4-yl]-thiazol-2-yl}-amide)]
5.66	(241)	6.95	(13)	8.05			Cc1nc(NC(=O)N2CC[C@@H](C)[C@H]2C(N)=O)sc1-c1ccnc(C(C)(C)C)c1 [Example 16, (2S,3R)-3-Methyl-pyrrolidine-1,2-dicarboxylic acid 2-amide 1-{[5-(2-tert-butyl-pyridin-4-yl)-4-methyl-thiazol-2-yl]-amide}]
